The source of these data is patent publication US20250215029A1 (Recludix Pharma, Inc., priority 2022, published 2025).

The first assay concerns the target T1, pY641-STAT6 in PBMC (Homo sapiens, UniProt P42226).
T1 construct: Cryopreserved Peripheral Blood Mononuclear Cells (PBMC) are from AllCells; host or cells: cryopreserved PBMC
T1 sequence (P42226 1-847): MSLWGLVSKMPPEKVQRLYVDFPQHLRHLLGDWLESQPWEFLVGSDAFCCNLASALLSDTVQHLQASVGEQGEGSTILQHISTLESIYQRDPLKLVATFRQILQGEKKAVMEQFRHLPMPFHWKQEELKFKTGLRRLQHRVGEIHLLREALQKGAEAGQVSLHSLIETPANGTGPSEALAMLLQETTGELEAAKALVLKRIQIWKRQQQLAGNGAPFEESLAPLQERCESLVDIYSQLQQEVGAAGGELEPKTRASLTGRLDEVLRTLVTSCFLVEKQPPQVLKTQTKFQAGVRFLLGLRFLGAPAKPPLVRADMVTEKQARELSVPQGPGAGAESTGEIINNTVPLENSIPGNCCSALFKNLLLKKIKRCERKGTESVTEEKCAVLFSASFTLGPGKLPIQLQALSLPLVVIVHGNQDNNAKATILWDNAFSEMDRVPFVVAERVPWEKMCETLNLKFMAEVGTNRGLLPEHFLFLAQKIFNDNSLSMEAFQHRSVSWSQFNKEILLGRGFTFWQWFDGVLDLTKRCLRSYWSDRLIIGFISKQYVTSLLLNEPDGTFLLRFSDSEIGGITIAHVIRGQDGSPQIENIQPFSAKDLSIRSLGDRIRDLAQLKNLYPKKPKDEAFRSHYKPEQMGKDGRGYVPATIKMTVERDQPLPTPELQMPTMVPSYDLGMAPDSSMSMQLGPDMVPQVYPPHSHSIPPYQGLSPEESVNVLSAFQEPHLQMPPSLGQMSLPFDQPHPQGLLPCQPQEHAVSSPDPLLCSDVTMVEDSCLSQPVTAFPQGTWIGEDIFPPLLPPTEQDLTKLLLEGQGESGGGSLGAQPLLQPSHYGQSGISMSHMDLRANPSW
Put plainly: MSD-pSTAT-PBMC Assay (pSTAT6, IL-4 stimulated). As to conditions: PBMC, compound 3 hrs, then 1 ng/mL IL-4 for 10 min; Table 115; read-out: STAT6. In kind it is cell-based. An outline of the steps: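 Cells are preincubated with compound for 3 hrs, then stimulated for 10 min, IL-4 at 1 ng/mL driving STAT6 phosphorylation and IL-6 at 10 ng/mL driving STAT3. Phospho-STAT in lysates is quantified by MSD immunoassay, and IC50 is fitted after subtracting unstimulated wells.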
Regarding `CCCOC(=O)[C@H](C)NP(=O)(Cc1ccc2sc(C(=O)N[C@H]3CCCC[C@H]4CC[C@@H](C(=O)N5C[C@@H](C#N)[C@H](c6ccccc6)C5)N4C3=O)cc2c1)Oc1ccccc1` (stereo partly drawn) [Compound 444], the IC50 is 100 to 1000 nM.

Staying with this assay, now noted: STAT6, PBMC, compound 3 hrs, then 1 ng/mL IL-4 for 10 min; Table 115.
`CCCOC(=O)[C@H](C)NP(=O)(Oc1ccccc1)C(F)c1ccc2ccc(C(=O)N[C@H]3CCCC[C@H]4CC[C@@H](C(=O)N5CC(c6ccn(C)c(=O)c6)CC56CC6)N4C3=O)cc2c1` (stereo partly drawn) [Compound 440, propyl ((fluoro(7-(((3S,6S,10aS)-3-(6-(1-methyl-2-oxo-1,2-dihydropyridin-4-yl)-4-azaspiro[2.4]heptane-4-carbonyl)-5-oxodecahydropyrrolo [1,2-a]azocin-6-yl)carbamoyl)naphthalen-2-yl)methyl)(phenoxy)phosphoryl)-L-alaninate] displayed an IC50 of less than 100 nM.
The same measure, in the same setting: the figure for `CCCOC(=O)[C@H](C)NP(=O)(Oc1ccccc1)C(F)c1ccc2ccc(C(=O)N[C@H]3CCCC[C@H]4CC[C@@H](C(=O)N5C[C@@H](c6ccn(C)c(=O)c6)CC56CC6)N4C3=O)cc2c1` (stereo partly drawn) [Compound 441, propyl ((fluoro(7-(((3S,6S,10aS)-3-((R)-6-(1-methyl-2-oxo-1,2-dihydropyridin-4-yl)-4-azaspiro[2.4]heptane-4-carbonyl)-5-oxodecahydropyrrolo [1,2-a]azocin-6-yl)carbamoyl)naphthalen-2-yl)methyl)(phenoxy)phosphoryl)-L-alaninate] is less than 100 nM.
The same measure, in the same setting: the figure for `CCCOC(=O)[C@H](C)NP(=O)(Oc1ccccc1)C(F)c1ccc2ccc(C(=O)N[C@H]3CCCC[C@H]4CC[C@@H](C(=O)N5C[C@H](c6ccccc6)[C@@H](C#N)C56CC6)N4C3=O)cc2c1` (stereo partly drawn) [Compound 442, propyl (((7-(((3S,6S,10aS)-3-((6S,7R)-7-cyano-6-phenyl-4-azaspiro[2.4]heptane-4-carbonyl)-5-oxodecahydropyrrolo [1,2-a]azocin-6-yl)carbamoyl)naphthalen-2-yl)fluoromethyl) (phenoxy)phosphoryl)-L-alaninate] is less than 100 nM.
Same read-out and setting: as for `CCCOC(=O)[C@H](C)NP(=O)(Oc1ccccc1)C(F)c1ccc2ccc(C(=O)N[C@H]3CCCC[C@H]4CC[C@@H](C(=O)N5C[C@H](c6ccn(C)c(=O)c6)CC56CC6)N4C3=O)cc2c1` (stereo partly drawn) [Compound 443, propyl ((fluoro(7-(((3S,6S,10aS)-3-((S)-6-(1-methyl-2-oxo-1,2-dihydropyridin-4-yl)-4-azaspiro[2.4]heptane-4-carbonyl)-5-oxodecahydropyrrolo [1,2-a]azocin-6-yl)carbamoyl)naphthalen-2-yl)methyl)(phenoxy)phosphoryl)-L-alaninate], the figure is 100 to 1000 nM.
In turn, `CCCOC(=O)[C@H](C)NP(=O)(Oc1ccccc1)C(F)c1ccc2sc(C(=O)N[C@H]3CCCC[C@H]4CC[C@@H](C(=O)N5CC(c6cccnc6)CC56CC6)N4C3=O)cc2c1` (stereo partly drawn) [Compound 448, propyl ((fluoro(2-(((3S,6S,10aS)-5-oxo-3-(6-(pyridin-3-yl)-4-azaspiro[2.4]heptane-4-carbonyl)decahydropyrrolo[1,2-a]azocin-6-yl)carbamoyl)benzo [b]thiophen-5-yl)methyl)(phenoxy)phosphoryl)-L-alaninate] showed an IC50 of less than 100 nM.
In turn, `CCCOC(=O)[C@H](C)NP(=O)(Oc1ccccc1)C(F)c1ccc2sc(C(=O)N[C@H]3CCCC[C@H]4CC[C@@H](C(=O)N5CC(c6ccn(C)c(=O)c6)CC56CC6)N4C3=O)cc2c1` (stereo partly drawn) [Compound 449, propyl ((fluoro(2-(((3S,6S,10aS)-3-(6-(1-methyl-2-oxo-1,2-dihydropyridin-4-yl)-4-azaspiro[2.4]heptane-4-carbonyl)-5-oxodecahydropyrrolo [1,2-a]azocin-6-yl)carbamoyl)benzo [b]thiophen-5-yl)methyl)(phenoxy)phosphoryl)-L-alaninate] came in with an IC50 of 100 to 1000 nM.
Same read-out and setting: the figure for `CCCOC(=O)[C@H](C)NP(=O)(Oc1ccccc1)C(F)c1ccc2ccc(C(=O)N[C@H]3CCCC[C@H]4CC[C@@H](C(=O)N5CCC(c6ccn(C)c(=O)c6)C5)N4C3=O)cc2c1` (stereo partly drawn) [Compound 450, propyl ((fluoro(7-(((3S,6S,10aS)-3-(3-(1-methyl-2-oxo-1,2-dihydropyridin-4-yl)pyrrolidine-1-carbonyl)-5-oxodecahydropyrrolo [1,2-a]azocin-6-yl)carbamoyl)naphthalen-2-yl)methyl)(phenoxy)phosphoryl)-L-alaninate] is 100 to 1000 nM; for `CCCOC(=O)[C@H](C)NP(=O)(Oc1ccccc1)C(F)c1ccc2ccc(C(=O)N[C@H]3CCCC[C@H]4CC[C@@H](C(=O)N5CCC(F)(c6ccn(C)c(=O)c6)C5)N4C3=O)cc2c1` (stereo partly drawn) [Compound 451, propyl ((fluoro(7-(((3S,6S,10aS)-3-(3-fluoro-3-(1-methyl-2-oxo-1,2-dihydropyridin-4-yl)pyrrolidine-1-carbonyl)-5-oxodecahydropyrrolo [1,2-a]azocin-6-yl)carbamoyl)naphthalen-2-yl)methyl)(phenoxy)phosphoryl)-L-alaninate] it is 100 to 1000 nM; for `CCCOC(=O)[C@H](C)NP(=O)(Oc1ccccc1)C(F)c1ccc2sc(C(=O)N[C@H]3CCCC[C@H]4CC[C@@H](C(=O)N5C(=O)N(c6cccnc6)C(=O)C56CC6)N4C3=O)cc2c1` (stereo partly drawn) [Compound 452, propyl (((2-(((3S,6S,10aS)-3-(5,7-dioxo-6-(pyridin-3-yl)-4,6-diazaspiro[2.4]heptane-4-carbonyl)-5-oxodecahydropyrrolo [1,2-a]azocin-6-yl)carbamoyl)benzo [b]thiophen-5-yl)fluoromethyl) (phenoxy)phosphoryl)-L-alaninate] it is less than 100 nM.
On the same count and under the same terms, as for `CCCOC(=O)[C@H](C)NP(=O)(Oc1ccccc1)C(F)c1ccc2ccc(C(=O)N[C@H]3CCC[C@H]4CC[C@@H](C(=O)N5CC(c6cccnc6)CC56CC6)N4C3=O)cc2c1` (stereo partly drawn) [Compound 453, propyl ((fluoro(7-(((3S,6S,9aS)-5-oxo-3-(6-(pyridin-3-yl)-4-azaspiro[2.4]heptane-4-carbonyl)octahydro-1H-pyrrolo[1,2-a]azepin-6-yl)carbamoyl)naphthalen-2-yl)methyl)(phenoxy)phosphoryl)-L-alaninate], the figure is 100 to 1000 nM.
Compound `CCCOC(=O)[C@H](C)NP(=O)(Oc1ccccc1)C(F)c1ccc2ccc(C(=O)N[C@H]3CCCC[C@H]4CC[C@@H](C(=O)N5CCC(c6ccn(C7CC7)c(=O)c6)C5)N4C3=O)cc2c1` (stereo partly drawn) [Compound 455, propyl (((7-(((3S,6S,10aS)-3-(3-(1-cyclopropyl-2-oxo-1,2-dihydropyridin-4-yl)pyrrolidine-1-carbonyl)-5-oxodecahydropyrrolo [1,2-a]azocin-6-yl)carbamoyl)naphthalen-2-yl)fluoromethyl) (phenoxy)phosphoryl)-L-alaninate] returned an IC50 of more than 3000 nM.
On to `CCCOC(=O)[C@H](C)NP(=O)(Oc1ccccc1)C(F)c1ccc2sc(C(=O)N[C@H]3CCC[C@H]4CC[C@@H](C(=O)N5CC(c6cccnc6)CC56CC6)N4C3=O)cc2c1` (stereo partly drawn) [Compound 456, propyl ((fluoro(2-(((3S,6S,9aS)-5-oxo-3-(6-(pyridin-3-yl)-4-azaspiro[2.4]heptane-4-carbonyl)octahydro-1H-pyrrolo[1,2-a]azepin-6-yl)carbamoyl)benzo [b]thiophen-5-yl)methyl)(phenoxy)phosphoryl)-L-alaninate], for which the IC50 was less than 100 nM.
Same read-out and setting: as for `CCCOC(=O)[C@H](C)NP(=O)(Oc1ccccc1)C(F)c1ccc2sc(C(=O)N[C@H]3CCCC[C@H]4CC[C@@H](C(=O)N5CCC(c6cnn(C)c(=O)c6)C5)N4C3=O)cc2c1` (stereo partly drawn) [Compound 465, propyl ((fluoro(2-(((3S,6S,10aS)-3-(3-(1-methyl-6-oxo-1,6-dihydropyridazin-4-yl)pyrrolidine-1-carbonyl)-5-oxodecahydropyrrolo [1,2-a]azocin-6-yl)carbamoyl)benzo [b]thiophen-5-yl)methyl)(phenoxy)phosphoryl)-L-alaninate], the figure is more than 3000 nM; as for `CCCOC(=O)[C@H](C)NP(=O)(Oc1ccccc1)C(F)c1ccc2sc(C(=O)N[C@H]3CCCC[C@H]4CC[C@@H](C(=O)N5CCC(O)(c6ccn(C)c(=O)c6)C5)N4C3=O)cc2c1` (stereo partly drawn) [Compound 466, propyl ((fluoro(2-(((3S,6S,10aS)-3-(3-hydroxy-3-(1-methyl-2-oxo-1,2-dihydropyridin-4-yl)pyrrolidine-1-carbonyl)-5-oxodecahydropyrrolo [1,2-a]azocin-6-yl)carbamoyl)benzo [b]thiophen-5-yl)methyl)(phenoxy)phosphoryl)-L-alaninate], more than 3000 nM.
